Laboratory results reported in PMC12763877 (Journal of Experimental & Clinical Cancer Research : CR, 2025).
Where two headings read alike, the source gives them in different places.

Key:
[1] = system: HUVEC; experiment: Annexin V-FITC/PI apoptosis assay (flow cytometry); assay type: cell-based, human; settings: 3.75-15 µM
Source text: The Annexin V-FITC/PI Apoptosis Detection Kit (Vazyme) was used to detect cell apoptosis according to the manufacturer’s instructions. Cells were stained with the kit and then analyzed using flow cytometry (Becton Dickinson [BD]).

[2] = system: HUVEC; experiment: Tube formation assay; assay type: cell-based, human; settings: candesartan 15, 7.5, 3.75 µM; sunitinib 2 µM
Procedure: The 96-well plate was coated with 50 µl matrix glue per well, and then HUVEC was inoculated into the 96-well plate coated with matrix glue with a density of 4 × 10^4 cells per well. Photos were taken with an optical microscope (Nikon, China) after culture at 37℃ and 5% CO2 for 6–8 h, and the length of the generated blood vessels was analyzed using ImageJ.

[3] = system: HUVEC; experiment: Sulforhodamine B proliferation assay; assay type: cell-based, human; settings: for IC50: Homo sapiens, HUVEC, read-out: IC50, HUVEC proliferation
Procedure: The culture medium was aspirated from the plates, and cells were fixed with 10% trichloroacetic acid (TCA) for 30 min. The plates were then washed twice with distilled water and air-dried. Subsequently, 0.4% sulforhodamine B (SRB) solution was added, and the plates were stained on a shaker for 20 min. The staining solution was discarded, and excess dye was removed by washing with freshly prepared 1% acetic acid. After air-drying, 10 mM Tris solution was added to each well. The plates were agitated on a shaker for 5 min to dissolve the dye, and the absorbance was measured at 560 nm using a microplate reader.
Angiogenesis is a multi-step process requiring coordinated endothelial functions, such as cell migration, proliferation, and extracellular matrix remodeling. […] Moreover, in the later stages of angiogenesis, vascular endothelial cells undergo proliferation and migration and further align to form cord-like, lumen-like structures(21). Thus, we conducted a vascular tube formation assay to evaluate the effect of candesartan on vascular normalization.

[4] = biological target: T1, APLNR (Homo sapiens, UniProt P35414); experiment: FLIPR Calcium 6 assay, inhibition of Apelin-13-induced calcium flux; assay type: cell-based; parameters: expressed in transfected cells; host or cells: HEK293
T1 sequence (P35414 1-380): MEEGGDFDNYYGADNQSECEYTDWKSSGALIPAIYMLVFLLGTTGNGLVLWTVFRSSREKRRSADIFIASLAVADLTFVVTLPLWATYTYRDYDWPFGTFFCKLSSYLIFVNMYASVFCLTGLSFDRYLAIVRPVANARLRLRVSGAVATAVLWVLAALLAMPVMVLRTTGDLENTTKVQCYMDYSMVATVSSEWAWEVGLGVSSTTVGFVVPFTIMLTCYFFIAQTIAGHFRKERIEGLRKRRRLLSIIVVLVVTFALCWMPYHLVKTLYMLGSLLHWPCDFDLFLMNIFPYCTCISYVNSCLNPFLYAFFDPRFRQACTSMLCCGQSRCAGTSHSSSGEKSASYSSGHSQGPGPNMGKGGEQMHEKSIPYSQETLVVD
Procedure: HEK293 cells stably expressing APLNR were seeded in 96-well plates (20,000 cells/well) and loaded with Calcium 6 dye (Molecular Devices) for 2 h. Candidate compounds dissolved in DMSO were applied at 2 µM for 15 min, followed by stimulation with the endogenous agonist Apelin-13 (100 nM). Real-time intracellular calcium flux was quantified using FLIPR Tetra® System (470–495 nm excitation/515–575 nm emission).
These candidates were further evaluated for APLNR inhibitory activity at the concentration of 2 µM by using a FLIPR® Calcium 6 Assay Kit, which quantifies ligand-induced intracellular calcium flux.

[5] = system: 4T1 cells (orthotopic breast cancer); experiment: Anti-tumor efficacy in breast cancer mouse model, alone or with Sunitinib; assay type: in vivo, BALB/c mice
Procedure: Female BABL/c mice aged 6–8 weeks were purchased from Beijing SPF Biological Co., LTD. 4T1 cells in good growth condition were collected and injected in situ into the mammary fat pad of female BALB/c mice at a density of 2 × 10⁶ cells per mouse. […] When the tumor size increased to approximately 1200 mm^3, we will conduct further tests. It should be pointed out that, when studying vascular leakage, DyLight™ 649-labeled tomato lectin (Tomoto-lectin) was injected intravenously into the mice via the tail vein two hours prior to tissue collection. The tumor tissues were then excised. Half of each tumor was fixed in 4% paraformaldehyde and subsequently processed for paraffin embedding and immunofluorescence staining. The remaining half was immediately frozen in liquid nitrogen and prepared as frozen sections for further experimental procedures.
Paraffin-embedded mouse tumor tissue sections were deparaffinized, rehydrated, and fixed with 4% paraformaldehyde at room temperature for 20 min. After washing with PBS, the sections were permeabilized with 1% Triton X-100 (Solarbio, China) for 15 min at room temperature, followed by blocking with 5% bovine serum albumin (BSA) in PBS containing 0.1% Triton X-100 for 1 h at room temperature to reduce nonspecific binding. […] After washing, the sections were further incubated overnight at 4 °C with primary antibodies against dsDNA and HSP60. The next day, the sections were incubated with Alexa Fluor 647-conjugated goat anti-rabbit IgG (H + L) secondary antibody (catalog no. A0468, Beyotime Biotechnology, China) for 1 h at room temperature in the dark. Nuclear staining was performed using DAPI (catalog no. C0060, Solarbio, China).
To observe metastasis, tissues were harvested and fixed in Bouin’s solution (saturated picric acid 75 ml + 40% formaldehyde 25 ml + glacial acetic acid 5 ml). After fixation, tissues were stained with picric acid to visualize metastatic nodules, which appeared as distinct lesions against the background tissue.

[6] = system: HUVEC; experiment: DNA damage: γ-H2AX western blot and alkaline comet assay; assay type: cell-based, human
Procedure: Total protein was extracted using RIPA lysis buffer (Solarbio, China) supplemented with phenylmethylsulfonyl fluoride (PMSF; Thermo Fisher Scientific, USA), protease inhibitor cocktail (Roche, Switzerland), and phosphatase inhibitor cocktail (Roche, Switzerland). Protein concentration was determined using a BCA protein assay kit (Thermo Fisher Scientific, USA). Equal amounts of protein were separated by 10% SDS-polyacrylamide gel electrophoresis (SDS-PAGE) and transferred onto nitrocellulose (NC) membranes. […] All primary antibodies were purchased from Cell Signaling Technology (CST, USA), except for GAPDH, which was obtained from Proteintech (Wuhan, China). After washing, the membranes were incubated with HRP-conjugated goat anti-rabbit or anti-mouse IgG secondary antibodies (Biosharp, China) for 1 h at room temperature. Protein bands were visualized using an enhanced chemiluminescence (ECL) detection system and scanned using a chemiluminescence imaging system.

[7] = system: HUVEC; experiment: ROS generation assay (DCFH-DA flow cytometry); assay type: cell-based, human; settings: 3.75-15 µM
Procedure: Flow cytometry was performed to measure intracellular reactive oxygen species (ROS) levels using DCFH-DA (2’,7’-Dichlorodihydrofluorescein diacetate). Cells were collected and stained with DCFH-DA, followed by incubation at 37℃ for 30 min in the dark. Subsequently, the cell populations were analyzed by flow cytometry.

[8] = system: HUVEC; experiment: Wound healing and Transwell assays; assay type: cell-based, human; settings: candesartan 15, 7.5, 3.75 µM; sunitinib 2 µM; 48 h
Procedure: HUVEC cells were digested and inoculated into 6-well plates, with 1 × 10^5 cells added to each hole. On the second day, the gun head was drawn vertically along the edge of the upper lid of the hole plate. The cells were washed twice with PBS, the scratched cells were removed, and the serum free medium containing drugs was added. The photos were taken and recorded under the microscope for 0 h and cultured in a 5% CO2 incubator at 37℃. After 48 h, the sample was taken and photographed for recording. The cell scratch area was calculated with Image J software.
Migration assays were performed using the Transwell cell culture insert. HUVEC (3 × 10^4 cells) were suspended with 100µL serum-free medium containing different concentrations of compounds and placed in the upper layer of the Transwell cell culture insert, and 300µL medium containing 10% FBS was placed below the cell-permeable membrane. Following an incubation (48 h), the cells that had migrated through the membrane were stained with 0.2% crystal violet for 30 min and count.

[9] = biological target: T1, APLNR; experiment: cAMP assay in APLNR-HEK293T cells; assay type: cell-based; parameters: expressed in transfected cells; host or cells: HEK293; settings: forskolin 20 µM, Apelin-13 0.1 µM, compound 10^-4-100 µM
Procedure: A suspension of APLNR-HEK293T cells was prepared and seeded into a 384-well OptiPlate™ 384 at a density of 1 × 10⁴ cells per well. The cells were cultured at 37℃ for 24 h. The culture medium was then removed, and 7.5 µL of serum-free medium containing 500 µM IBMX and the test compound was added to each well. The plate was incubated at 37℃ with 5% CO2 for 30 min. The concentration of cAMP was subsequently measured using the cAMP-Glo™ Assay Kit (Promega).
To characterize the molecular interactions between candesartan and APLNR, we performed molecular docking simulations using the APLNR crystal structure (PDB: 7SUS) as a template. […] In addition, previous studies have established that APLNR activation by its endogenous agonist Apelin-13 […] Gi protein signaling, thereby attenuating forskolin-induced cAMP accumulation. Then, using APLNR overexpression cell line (HEK293T-APLNR) and cAMP quantification assays to investigate the inhibitory activity of candesartan on APLNR.

[10] = candesartan 10 mg/kg, Sunitinib 40 mg/kg

For `CCOc1nc2cccc(C(=O)O)c2n1Cc1ccc(-c2ccccc2-c2nnn[nH]2)cc1` [Compound A-2, Candesartan], the HUVEC apoptosis [1] was “no apoptosis was observed”, the “Tube formation: mean mesh size and total mesh area” value [2] was “increase the mean mesh and the total meshe area” and the “Tube formation: number of junctions, total segment length, number of meshes” value [2] was “significantly reduced the number of junctions, total segment length, and the number of meshes”. For the same molecule, the “Cytotoxicity on HUVEC cells” value ([3]; 15 µM) was “no significant cytotoxicity”, the IC50 ([3]; 48 h) was 32.4 ± 1.69 µM and the IC50 ([3]; 72 h) was 27.1 ± 0.91 µM. The IC50 ([4]; FLIPR system, read-out: IC50, inhibition of Apelin-13-mediated calcium mobilization) was 1.21 µM, the inhibition at 2 µM ([4]; compound 2 µM, 15 min, then Apelin-13 100 nM, HEK293 cells stably expressing APLNR, read-out: Inhibition rate (2 μM, %)) was 72.3% and the Tumor growth ([5]; candesartan 10 mg/kg once daily, Sunitinib 40 mg/kg every two days, intragastric, 14 days, vs vehicle) was “significantly reduce the tumor growth”. For the same molecule, the “Coverage of pericytes on endothelial cells in tumors (CD31/α-SMA)” value [5, 10] was “significantly increased”, the “Lung surface nodules / pulmonary metastasis” value [5, 10] was “inhibited pulmonary metastasis of breast cancer” and the “DNA fragmentation (comet assay)” value [6] was “increased DNA fragmentation”. For the same molecule, the γ-H2AX expression ([6]; western blot, 48 h) was “dose-dependent increase”, the ROS levels [7] was “gradually increased with increasing drug concentration” and the “Migratory and invasive capacities of HUVECs” value [8] was “significantly reduced the migratory and invasive capacities of HUVECs”. For the same molecule, the “cAMP accumulation (reversal of Apelin-13 effect)” value [9] was “dose-dependently restored cAMP accumulation”.
